Molecules are shown by their SMILES. Bounds are passed on as bounds.

In one test the target is 3-phosphoinositide-dependent protein kinase 1 (Homo sapiens, UniProt O15530). Briefly: Inhibition of PDK1 (unknown origin) using AKT(Thr-308)-tide substrate.
Settings: not given
On to `O=C(CC(c1ccccc1)C(C(=O)O)C(=O)O)c1ccc(C(F)(F)F)cc1` (stereo not given), for which the AC50 – broadly, the concentration at which the activity in the assay is half-maximal – turned out to be 2000 nM.

Tested on in a further test: not listed separately
Briefly: Antiproliferative activity against human U87MG cells after 72 hrs. Conditions: U-87 MG. The test is classed as functional, cell-based, U-87MG ATCC.
As to `O=C(N[C@@H](COc1ccc2[nH]c(=O)[nH]c2c1)c1ccccc1)c1cccn(Cc2ccc(F)c(F)c2)c1=O`, the IC50 – broadly, the concentration at which inhibition is half-maximal – was greater than 30 µM.

The target of the next test is T1, 3-phosphoinositide-dependent protein kinase 1 (Homo sapiens) (UniProt O15530).
T1 sequence (whole entry): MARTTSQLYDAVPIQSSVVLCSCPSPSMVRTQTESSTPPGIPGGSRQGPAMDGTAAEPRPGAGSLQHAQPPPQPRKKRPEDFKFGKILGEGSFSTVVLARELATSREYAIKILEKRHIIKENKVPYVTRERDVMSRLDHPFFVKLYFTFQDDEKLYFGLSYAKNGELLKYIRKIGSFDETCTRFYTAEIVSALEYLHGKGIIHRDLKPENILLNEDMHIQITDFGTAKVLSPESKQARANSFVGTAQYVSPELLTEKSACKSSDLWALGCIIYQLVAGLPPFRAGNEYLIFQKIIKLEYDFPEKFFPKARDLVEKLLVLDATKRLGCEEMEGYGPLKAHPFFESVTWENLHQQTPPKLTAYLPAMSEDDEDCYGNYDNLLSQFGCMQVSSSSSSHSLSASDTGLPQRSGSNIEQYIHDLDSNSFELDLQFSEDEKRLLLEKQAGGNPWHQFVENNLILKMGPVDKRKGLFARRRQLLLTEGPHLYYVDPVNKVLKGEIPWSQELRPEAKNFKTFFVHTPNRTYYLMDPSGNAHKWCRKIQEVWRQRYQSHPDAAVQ
The test can be described thus: Inhibition of PDK1 (unknown origin) at 10 uM by FRET-based Z-lyte assay.
Settings: not given
Take `O=C(CNC(=O)c1cccn(Cc2ccc(F)c(F)c2)c1=O)Nc1ccc2c(c1)/C(=C\c1ccc(F)cc1)C(=O)N2`: the inhibition (in general, the percentage by which the read-out fell short of the control) was less than 10%.
For the compound `O=C1Nc2ccc(NC(=O)c3cccn(Cc4ccc(F)c(F)c4)c3=O)cc2/C1=C\c1ccc(F)cc1`, the inhibition was less than 10%.
Compound `O=C1Nc2ccc(NC(=O)[C@H](NC(=O)c3cccn(Cc4ccc(F)c(F)c4)c3=O)c3ccccc3)cc2/C1=C/c1cnc[nH]1` registered an inhibition of 95%.
On to `O=C(CNC(=O)c1cccn(Cc2ccc(F)c(F)c2)c1=O)Nc1ccc2c(c1)CC(=O)N2`, for which the inhibition came out at 57%.
On the same count and under the same terms, the value for `O=C(CNC(=O)c1cccn(Cc2ccc(F)c(F)c2)c1=O)Nc1ccc2c(c1)/C(=C/c1cccs1)C(=O)N2` was 19%; that for `O=C1Nc2ccc(NC(=O)c3cccn(Cc4ccc(F)c(F)c4)c3=O)cc2/C1=C/c1cnc[nH]1` was 64%; that for `O=C1Nc2ccc(NC(=O)[C@H](NC(=O)c3cccn(Cc4ccc(F)c(F)c4)c3=O)c3ccccc3)cc2/C1=C/c1cccs1` was less than 10%.
For `O=C1Nc2ccc(NC(=O)[C@H](NC(=O)c3cccn(Cc4ccc(F)c(F)c4)c3=O)c3ccccc3)cc2/C1=C/c1ncc[nH]1`, the inhibition worked out at 74%.
Same read-out and setting: the value for `O=C1Nc2ccc(NC(=O)[C@H](NC(=O)c3cccn(Cc4ccc(F)c(F)c4)c3=O)c3ccccc3)cc2/C1=C\c1ccc(F)cc1` was less than 10%; that for `O=C1Nc2ccc(NC(=O)c3cccn(Cc4ccc(F)c(F)c4)c3=O)cc2/C1=C/c1cccs1` was less than 10%.
On the same count and under the same terms, the value for `O=C1Cc2cc(NC(=O)[C@H](NC(=O)c3cccn(Cc4ccc(F)c(F)c4)c3=O)c3ccccc3)ccc2N1` was less than 10%; that for `O=C1Cc2cc(NC(=O)c3cccn(Cc4ccc(F)c(F)c4)c3=O)ccc2N1` was less than 10%.
On the same count and under the same terms, the same measure for `Cn1ccnc1/C=C1/C(=O)Nc2ccc(NC(=O)c3cccn(Cc4ccc(F)c(F)c4)c3=O)cc21`: less than 10%.

The values are drawn from ChEMBL document CHEMBL3822377, “Locking PDK1 in DFG-out conformation through 2-oxo-indole containing molecules: Another tools to fight glioblastoma” (Eur J Med Chem, 2016).
